Series [1] has as its system SUDHL5. Put plainly: Antiproliferation assay (Assay 7), SUDHL5. The class given is cell-based. The following applies: CellTiter-Glo, median, read-out: Antiproli SUDHL5 [M] (median) IC50. How it is done:
(§1) Assessment of the Anti-Proliferative Effect of Compounds in Different Cell Lines
(§2) The impact of compounds on the proliferation of different cell lines was assessed using the CellTiter-Glo® Luminescent Cell Viability reagent from Promega (G7573).
(§3) In parallel, cells were plated in a reference (day 0) plate for time zero determination.
(§4) Rim wells were excluded. The cells were incubated for 72 hours in a humidified incubator at 37° C. The day 0 plate was measured by adding 30 μL/well of CTG solution (CellTiter-Glo® Luminescent Cell Viability reagent, Promega G7573) to time zero wells in the reference plate followed by a 10 minutes incubation and luminescence reading at 0.1 ms. using the PHERAstar FS microplate reader (BMG Labtech).
(§5) After 72 hours incubation, the treated plates were measured in the same way as the day 0 plate mentioned above.

For series [2], the system named is SUDHL10. Put plainly: Induction of cytotoxicity (Assay 6), SUDHL10. The note with it: read-out: Cytotox SUDHL10 [M] (median) IC50, CellTiter-Glo, 5 hours, SUDHL10.
Series [3] concerns SUDHL10. Put plainly: Induction of caspase-3/7 activity (Assay 4), SUDHL10. The class given is cell-based. The following applies: caspase-3/7 induction, median. The method, then: (§6) Cellular Assays Assay 4 Induction of Caspase-3/7 Activity Upon Treatment of Cells with Selected Compounds
(§7) The BH3-domain of MCL-1 sequesters pro-apoptotic proteins, thereby inhibiting apoptosis. In contrast, MCL-1 inhibitors are expected to antagonize this effect leading to an increase in apoptosis, which can be determined by measuring the activity of caspase-3/7.
(§8) The activity of caspase-3/7 was determined in DLBCL (Diffuse large B-cell lymphoma) cell lines (SUDHL5 and SUDHL10) upon treatment with different compounds, using the Caspase-Glo® 3/7 reagent from Promega (G8092).
(§9) Rim wells were excluded. The cells were incubated for 3 hours in a humidified incubator at 37° C.
(§10) For the evaluation of the results, the background measured with “medium-only” was subtracted from all other values. […] The Bella DRC Master Sheet was used to calculate EC50s, with fixed C0=1 and CI=plateau/max induction for the reference compound.

A further series deals with A2780. Put plainly: Antiproliferation assay (Assay 7), A2780. The format is cell-based. The note with it: CellTiter-Glo, several values per example. How it is done:
as §1, §2, §3, §4, §5

For the next series, the system named is MV-4-11. Nature of the series: Antiproliferation assay (Assay 7), MV-4-11. The class given is cell-based. The following applies: CellTiter-Glo, several values per example. The method, then:
as §1, §2, §3, §4, §5

Series [4] has as its system SUDHL5. Nature of the series: Induction of caspase-3/7 activity (Assay 4), SUDHL5. The format is cell-based. The note with it: caspase-3/7 induction, median. How it is done: as §6, §7, §8, §9, §10
Series [5] has as its system SUDHL5. Put plainly: Induction of cytotoxicity (Assay 6), SUDHL5. The note with it: read-out: Cytotox SUDHL5 [M] (median) IC50, CellTiter-Glo, 5 hours, SUDHL5.
The next series has as its target MCL-1 (Homo sapiens (Human), UniProt Q07820, K194A/K197A/R201A). Put plainly: Protein-protein interaction assay MCL-1/Noxa BH3 peptide (MCL-1 assay, TR-FRET). The format is binding. The note with it: MBP-MCL-1 / Noxa BH3 peptide, median. How it is done: Protein-Protein Interaction Assay: MCL-1/Noxa BH3 Peptide (MCL-1 Assay)
The dose-dependent inhibition by the compounds described in this invention of the interaction between MCL-1 and the BH3 domain of Noxa (both human) was determined using a steady state binding competition assay with time-resolved fluorescence energy transfer (TR-FRET) readout. For that purpose MCL-1 (amino acids 173-329, N-terminal fused to Maltose Binding Protein (MBP) SEQ ID 1) and a synthetic Noxa BH3-derived peptide of sequence Biotin-PEG2-PEG2-PAELEVE-Nva-ATQLRRFGDKLNFRQKLL-amide (SEQ ID 2) served as protein receptor and tracer ligand respectively. The MBP-MCL-1 was purchased from Beryllium (Bedford, Mass., USA). The expression and purification of this protein construct has been described elsewhere (DOI:10.1371/journal.pone.0125010). The Noxa BH3-derived peptide can be obtained from e.g. Biosyntan (Berlin, Germany).
In the assay 11 different concentrations of each compound (0.1 nM, 0.33 nM, 1.1 nM, 3.8 nM, 13 nM, 44 nM, 0.15 μM, 0.51 μM, 1.7 μM, 5.9 μM and 20 μM) were typically measured as duplicates in the same microtiter plate. For that, 100-fold concentrated DMSO solutions were prepared by serial dilutions (1:3.4) of a 2 mM stock solution in a clear, 384-well microtiter plate (Greiner Bio-One, Frickenhausen, Germany). From there, 50 nl were transferred in a dark test plate (Greiner Bio-One, Frickenhausen, Germany). The assay was initiated by addition of 2 μl of a 2.5-fold concentrated MBP-MCL-1 solution (usually for a 1 nM end concentration in 5 μl reaction volume) in aqueous assay buffer [50 mM Tris/HCl pH 7, 100 mM sodium chloride (NaCl), 50 mM potassium fluoride (KF), 0.005% Tween-20, 2 mM DTT, 0.1% bovine gamma globulin (BGG)] to the compounds in the assay plate. This was followed by a 10-minute incubation step at 22° C. for pre-equilibration of the putative complex between MBP-MCL-1 and the compounds. After that, 3 μl of a 1.67-fold concentrated solution (in assay buffer) consisting of Noxa BH3-derived peptide (1 nM end concentration) and TR-FRET detection reagents [1.67 nM anti-MBP-Eu cryptate and 1.67 nM streptavidin-XL665 (both from Cisbio Bioassays, Codolet, France)], were added.
The mixture was incubated in the dark for one hour at 22° C. and then overnight at 4° C. The formation of MCL-1/Noxa complexes was determined by measuring the resonance energy transfer of the anti-MBP-Eu-cryptate antibody to the streptavidin-XL665 present in the reaction. For that purpose, the fluorescence emission at 620 nm and 665 nm after excitation at 330-350 nm was measured in a TR-FRET measuring instrument, for instance a Rubystar or a Pherastar (both from BMG Lab Technologies, Offenburg, Germany) or a Viewlux (Perkin-Elmer). The ratio of the emission at 665 nm and at 622 nm was used as indicator of the amount of MCL-1/NOXA complexes present.
The resulting data (ratio) were normalized, taking 0% inhibition as the mean value of control measurements (usually 32 data points) where all reagents were included. In this case 50 nl DMSO were used instead of compounds. A 100% inhibition corresponded to the mean value of control measurements (usually 32 data points) where all reagents except MCL-1 were included. IC50 values were determined by regression analysis based on a 4 parameter equation (minimum, maximum, IC50, Hill; Y=Max+(Min−Max)/(1+(X/IC50)^HiII) using the Screener Software (Genedata).

The test system of series [6] is SUDHL10.
Series [7] has as its system SUDHL5.
For series [8] the following is noted: amine bond, acetonitrile.
The mark [9] stands for this setting: Homo sapiens, A2780, 72 h, read-out: Antiproli A2780 [M] IC50.
[10] abbreviates: Homo sapiens, MV4-11, 72 h, read-out: Antiproli MV-4-11 [M] IC50.

The text below walks through data of US11401278B2, “Macrocyclic indole derivatives” (The Broad Institute, Inc., priority 2017, dated 2022).

Structures are written as SMILES. Structures can show the parent of a compound that is named as a salt. Where two headings read alike, the source gives them in different places.

MCL-1, sequence (Q07820 whole entry K194A/K197A/R201A, looked up, the tested form may be a part): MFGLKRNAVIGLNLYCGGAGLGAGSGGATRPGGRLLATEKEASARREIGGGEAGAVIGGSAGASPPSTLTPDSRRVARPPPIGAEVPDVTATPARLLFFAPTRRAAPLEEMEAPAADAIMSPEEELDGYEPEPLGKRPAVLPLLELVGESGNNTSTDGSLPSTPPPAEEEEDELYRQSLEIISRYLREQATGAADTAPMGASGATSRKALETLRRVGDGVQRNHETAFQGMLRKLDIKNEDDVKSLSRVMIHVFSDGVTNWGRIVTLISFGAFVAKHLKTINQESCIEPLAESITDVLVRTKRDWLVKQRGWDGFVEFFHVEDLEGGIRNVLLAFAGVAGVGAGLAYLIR

For the molecule `Cc1c2c(nn1C)CN(CCN1CCOCC1)S(=O)(=O)CCCn1c(C(=O)O)c(CCCOc3cccc4ccccc34)c3cccc-2c31` (single isomer, unassigned; enantiomer 1) [Example 2, 2,3-Dimethyl-14-[2-(morpholin-4-yl)ethyl]-7-{3-[(naphthalen-1-yl)oxy]propyl}-13,13-dioxo-10,11,12,13,14,15-hexahydro-2H-13λ^6-pyrazolo[3′,4′:4,5][1,2,8]thiadiazacycloundecino-[6,7,8-hi]indole-8-carboxylic acid-N-ethylethanamine salt (Enantiomer 1)], the IC50 in the series on SUDHL5 [1] (72 hours) is 4.4e-06 M; in the series with SUDHL10 [2], 9.8e-06 M; in the series with A2780 (72 hours, listed as 02, read-out: Antiproli A2780 [M] IC50), more than 3.3e-05 M; with A2780 (setting [9]), 2.66e-05 M; in the series with MV-4-11 (72 hours, listed as 02, read-out: Antiproli MV-4-11 [M] IC50) it was 8.63e-06 M; in the series on MV-4-11 (setting [10]) it was 1.17e-05 M. The IC50 is 3.5e-06 M in the series with SUDHL5 [5] and 0.0034 µM on MCL-1. Further, the EC50 in the series on SUDHL10 [3] (3 hours) was 11 µM; with SUDHL5 [4] (3 hours) it was 3.9 µM.

In the case of `Cc1c2c(nn1C)CN(C)S(=O)(=O)CCCC1C(C(=O)O)=C(CCCOc3cccc4ccccc34)c3cccc-2c31` (racemic) [Example 10, (rac)-2,3,14-Trimethyl-7-[3-(1-naphthyloxy)propyl]-11,12,14,15-tetrahydro-2H,10H-pyrazolo[3′,4′:4,5][1,2,8]thiadiazacycloundecino[6,7,8-hi]indole-8-carboxylic acid 13,13-dioxide], the IC50 in the series on SUDHL5 [1] (Homo sapiens, SU-DHL-5, 72 h) was 3.8e-06 M; in the series on SUDHL10 [2] (Homo sapiens, SU-DHL10, 5 h), 1.2e-05 M; in the series on A2780 (72 hours, read-out: Antiproli A2780 [M] IC50) it was more than 3.3e-05 M; with A2780 (setting [9]), 1.68e-05 M; with MV-4-11 (72 hours, read-out: Antiproli MV-4-11 [M] IC50), 1.28e-05 M; in the series on MV-4-11 (setting [10]), 1.54e-05 M. For the same molecule, the IC50 was 3.8e-06 M with SUDHL5 [5] (Homo sapiens, SU-DHL-5, 5 h) and 0.0074 µM against MCL-1. Besides, the EC50 with SUDHL10 [3] (Homo sapiens, SU-DHL10, 3 h) turned out to be 14 µM; in the series with SUDHL5 [4] (Homo sapiens, SU-DHL-5, 3 h), 3.1 µM.

`CCc1c2c(nn1C)C(CCN1CCOCC1)N(C)S(=O)(=O)CCCn1c(C(=O)O)c(CCCOc3cccc4cc(F)ccc34)c3ccc(Cl)c-2c31` (single isomer, unassigned) [Example 72, 4-chloro-3-ethyl-7-{3-[(6-fluoronaphthalen-1-yl)oxy]propyl}-2,14-dimethyl-15-[2-(morpholin-4-yl)ethyl]-13,13-dioxo-10,11,12,13,14,15-hexahydro-2H-13lambda6-pyrazolo[3′,4′:4,5][1,2,8]thiadiazacycloundecino[6,7,8-hi]indole-8-carboxylic acid (Mixture of Stereoisomers)]: the IC50 was found to be 0.034 µM with SUDHL10 [6], 0.0087 µM with SUDHL5 [7] and 0.0011 µM at MCL-1. Moreover, the EC50 on SUDHL10 [3] (3 hours) is 0.027 µM; on SUDHL5 [4] (3 hours), 0.015 µM.

Molecule `CCOC(=O)c1c(CCCO[Si](C)(C)C(C)(C)C)c2ccc(F)c3c2n1CCCS(=O)(=O)N(C)Cc1nn(C)c(CC)c1-3` had a ring closure, yield of all isomers in series [8] (from CCOC(=O)c1[nH]c2c(-c3c(CN(C)S(=O)(=O)CCCCl)nn(C)c3CC)c(F)ccc2c1CCCO[Si](C)(C)C(C)(C)C, Cs2CO3, 50.0 mM, 60.0 °C, 72.0 h) of 55.2%.

In series [8] (from CCOC(=O)c1[nH]c2c(-c3c(C(CCN4CCOCC4)N(C)S(=O)(=O)CCCCl)nn(C)c3C)c(Cl)ccc2c1CCCOc1cccc2cc(F)ccc12, cesium carbonate, 37.4 mM, 60.0 °C, 48.0 h), `CCOC(=O)c1c(CCCOc2cccc3cc(F)ccc23)c2ccc(Cl)c3c2n1CCCS(=O)(=O)N(C)C(CCN1CCOCC1)c1nn(C)c(C)c1-3` (stereo not shown) registered a ring closure, yield of all isomers of 82%.

Consider `CCOC(=O)c1c(CCCOc2cccc3cc(F)ccc23)c2ccc(Cl)c3c2n1CCCS(=O)(=O)N(C)C(CCN1CCOCC1)c1nn(C)c(CC)c1-3` (racemic), for which the ring closure, yield of all isomers in series [8] (from CCOC(=O)c1[nH]c2c(-c3c(C(CCN4CCOCC4)N(C)S(=O)(=O)CCCCl)nn(C)c3CC)c(Cl)ccc2c1CCCOc1cccc2cc(F)ccc12, cesium carbonate, 49.5 mM, 60.0 °C, 48.0 h) came to 44.9%.

`CCOC(=O)c1c(CCCOc2cccc3cc(F)ccc23)c2ccc(Cl)c3c2n1CCCS(=O)(=O)N(CCN1CCOCC1)Cc1nn(C)c(CC)c1-3`: in series [8] (from CCOC(=O)c1[nH]c2c(-c3c(CN(CCN4CCOCC4)S(=O)(=O)CCCCl)nn(C)c3CC)c(Cl)ccc2c1CCCOc1cccc2cc(F)ccc12, cesium carbonate, 50.3 mM, 40.0 °C, 48.0 h), the ring closure, yield of all isomers was determined as 90.3%.

As to `CCOC(=O)c1c(CCCOc2cccc3ccccc23)c2cccc3c2n1CCCS(=O)(=O)N(C)C(CCN1CCOCC1)c1nn(C)c(C)c1-3` (stereo not shown), in series [8] (from CCOC(=O)c1[nH]c2c(-c3c(C(CCN4CCOCC4)N(C)S(=O)(=O)CCCCl)nn(C)c3C)cccc2c1CCCOc1cccc2ccccc12, Cs2CO3, 49.6 mM, 60.0 °C, 48.0 h), the ring closure, yield of all isomers is 99.7%.

On to `CCOC(=O)c1c(CCCO[Si](C)(C)C(C)(C)C)c2ccc(Cl)c3c2n1CCCS(=O)(=O)N(C1CC1)Cc1nn(C)c(C)c1-3`, for which the ring closure, yield of all isomers in series [8] (from CCOC(=O)c1[nH]c2c(-c3c(CN(C4CC4)S(=O)(=O)CCCCl)nn(C)c3C)c(Cl)ccc2c1CCCO[Si](C)(C)C(C)(C)C, Cs2CO3, 50.4 mM, 60.0 °C, 48.0 h) was 60%.
